pIC50: −log10 of the molar value.

Format in all cases: cell-based
The target in experiment [1] is T1, human serotonin transporter (hSERT) (Homo sapiens, UniProt P31645).
T1 construct: expressed in transfected cells
Description: Inhibition of 3H-serotonin uptake in HEK-293 cells expressing hSERT. Conditions: HEK-293 hSERT cells, 3H-5HT 50 nM, 5 min incubation; read-out: serotonin re-uptake inhibition (SRI) IC50. The method, then:
(§1) Cells were harvested for the assay to yield a cell suspension of 750,000 cells/ml. […] Assays were carried out in 96-well filter bottom plates. […] All reactions were carried out at room temperature in a shaking incubator. Incubation times were 5 minutes for the hSERT and hDAT assays and 15 minutes for the hNET assay. Reactions were terminated by removal of the reaction mixture using a vacuum manifold followed by rapid washing with ice cold assay buffer. The quantity of ^3H-substrate incorporated into the cells was then quantified. Assay plates were dried in a microwave oven, scintillation fluid added, and radioactivity measured. […] Note: The pH of the buffer was adjusted to 7.40 with 1M NaOH before addition of CaCl2 and pargyline.

Experiment [2] has as its target T2, noradrenaline transporter (hNET) (Homo sapiens, UniProt P23975).
T2 construct: expressed in transfected cells
Description: Inhibition of 3H-noradrenaline uptake in HEK-293 cells expressing hNET. The method, then:
Cells were harvested for the assay to yield a cell suspension of 750,000 cells/ml. All test compounds were dissolved in 100% DMSO and diluted down in assay buffer to give appropriate test concentrations. Assays were carried out in 96-well filter bottom plates. […] All reactions were carried out at room temperature in a shaking incubator. Incubation times were 5 minutes for the hSERT and hDAT assays and 15 minutes for the hNET assay. Reactions were terminated by removal of the reaction mixture using a vacuum manifold followed by rapid washing with ice cold assay buffer. The quantity of ^3H-substrate incorporated into the cells was then quantified. Assay plates were dried in a microwave oven, scintillation fluid added, and radioactivity measured. […] Note: The pH of the buffer was adjusted to 7.40 with 1M NaOH before addition of CaCl2 and pargyline. [table]

Experiment [3] deals with T3, dopamine transporter (hDAT) (Homo sapiens, UniProt Q01959).
T3 construct: expressed in transfected cells
T3 sequence (Q01959 whole entry): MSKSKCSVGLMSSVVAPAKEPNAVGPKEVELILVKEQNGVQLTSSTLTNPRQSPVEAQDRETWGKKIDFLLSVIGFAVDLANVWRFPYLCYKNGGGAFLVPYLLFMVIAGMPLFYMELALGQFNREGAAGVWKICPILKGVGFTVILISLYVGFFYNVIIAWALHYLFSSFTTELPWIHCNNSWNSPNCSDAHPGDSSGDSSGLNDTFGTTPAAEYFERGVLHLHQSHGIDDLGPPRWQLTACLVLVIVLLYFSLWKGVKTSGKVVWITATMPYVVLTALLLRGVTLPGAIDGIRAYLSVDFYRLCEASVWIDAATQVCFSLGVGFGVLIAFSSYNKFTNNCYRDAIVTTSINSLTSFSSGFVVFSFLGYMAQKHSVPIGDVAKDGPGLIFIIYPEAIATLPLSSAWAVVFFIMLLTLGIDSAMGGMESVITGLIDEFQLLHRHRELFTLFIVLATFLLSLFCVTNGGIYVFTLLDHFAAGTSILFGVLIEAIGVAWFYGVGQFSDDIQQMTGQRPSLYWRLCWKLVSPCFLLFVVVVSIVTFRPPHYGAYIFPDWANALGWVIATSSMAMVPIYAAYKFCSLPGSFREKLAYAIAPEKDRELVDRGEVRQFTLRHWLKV
Kind of experiment: Inhibition of 3H-dopamine uptake in HEK-293 cells expressing hDAT. As for the experimental part: as §1

T2 sequence (P23975 whole entry): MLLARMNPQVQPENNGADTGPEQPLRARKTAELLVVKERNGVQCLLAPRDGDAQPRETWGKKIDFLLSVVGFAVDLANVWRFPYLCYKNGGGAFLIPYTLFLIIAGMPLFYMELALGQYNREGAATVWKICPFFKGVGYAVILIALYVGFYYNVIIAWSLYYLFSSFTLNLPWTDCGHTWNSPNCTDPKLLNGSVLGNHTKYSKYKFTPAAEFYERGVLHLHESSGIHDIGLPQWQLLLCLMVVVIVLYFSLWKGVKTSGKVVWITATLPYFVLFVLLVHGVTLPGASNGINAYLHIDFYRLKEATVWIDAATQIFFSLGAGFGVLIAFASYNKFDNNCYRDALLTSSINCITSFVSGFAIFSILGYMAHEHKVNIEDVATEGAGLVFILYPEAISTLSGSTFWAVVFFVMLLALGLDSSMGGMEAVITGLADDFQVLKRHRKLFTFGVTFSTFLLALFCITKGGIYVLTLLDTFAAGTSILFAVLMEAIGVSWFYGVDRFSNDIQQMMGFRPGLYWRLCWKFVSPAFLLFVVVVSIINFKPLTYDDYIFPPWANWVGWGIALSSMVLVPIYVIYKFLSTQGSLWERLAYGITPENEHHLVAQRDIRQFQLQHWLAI
T1 sequence (P31645 whole entry): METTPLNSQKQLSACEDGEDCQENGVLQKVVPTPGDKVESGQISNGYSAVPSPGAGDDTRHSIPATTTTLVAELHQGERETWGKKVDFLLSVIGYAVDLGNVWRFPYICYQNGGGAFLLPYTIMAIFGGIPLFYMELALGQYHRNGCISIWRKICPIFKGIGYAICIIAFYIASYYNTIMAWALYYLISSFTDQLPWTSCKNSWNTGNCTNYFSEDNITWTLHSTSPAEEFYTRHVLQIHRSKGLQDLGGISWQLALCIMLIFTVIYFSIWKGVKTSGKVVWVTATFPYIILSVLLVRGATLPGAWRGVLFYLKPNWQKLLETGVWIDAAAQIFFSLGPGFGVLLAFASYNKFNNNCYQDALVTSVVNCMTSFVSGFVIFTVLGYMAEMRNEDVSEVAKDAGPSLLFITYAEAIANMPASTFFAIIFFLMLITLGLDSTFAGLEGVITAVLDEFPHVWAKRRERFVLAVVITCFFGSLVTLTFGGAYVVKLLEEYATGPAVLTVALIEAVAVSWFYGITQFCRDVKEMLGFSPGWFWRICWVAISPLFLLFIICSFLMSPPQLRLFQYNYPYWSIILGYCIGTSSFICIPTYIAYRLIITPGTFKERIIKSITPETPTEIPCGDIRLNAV

The term pIC50 denotes the negative decadic logarithm of the IC50, by convention in mol/L. As to `CC(C)CN(C(=O)c1ccc2ccccc2c1)[C@@H]1CCNC1.Cl` [Example 23, N-Isobutyl-N-[(3R)-pyrrolidin-3-yl]-2-naphthamide hydrochloride], the pIC50 in experiment [1] was 8.33; in experiment [2] (HEK-293 hNET cells, 3H-Noradrenaline 200 nM, 15 min incubation, read-out: noradrenaline re-uptake inhibition IC50), 5.91; in experiment [3] (HEK-293 hDAT cells, 3H-Dopamine 200 nM, 5 min incubation, read-out: dopamine re-uptake inhibition IC50) it was 5.02. Moreover, the “fold more potent (serotonin re-uptake) over noradrenaline re-uptake” value in experiment [2] (selectivity hSERT vs hNET) was found to be 261 fold. Also, in experiment [3] (selectivity hSERT vs hDAT), the “fold more potent (serotonin re-uptake) over dopamine re-uptake” value is 2018 fold.

The record behind these values is patent publication US20050014789A1, “Amide derivatives as selective serotonin re-uptake inhibitors” (Pfizer Inc, priority 2003, published 2005).
